Experimental data taken from US6790971B1, “19-Nor-steroids” (Aventis Pharma S.A., priority 1989, dated 2004).

Tests used:
[1] = target: T1, Progestogen Receptor of Rabbit's Uterus (Oryctolagus cuniculus, UniProt P06186); assay: Relative affinity of the bond, progestogen receptor (tritiated product R displacement); type: binding; conditions: for Relative affinity of the bond (RAB), Progestogen, 2 H: incubation 2 H at 0° C.; for Relative affinity of the bond (RAB), Progestogen, 2 H / Relative affinity of the bond (RAB), Progestogen, 24 H: RAB=100(CH)/(CX); for Relative affinity of the bond (RAB), Progestogen, 24 H: incubation 24 H at 0° C.
T1 construct: The uteri were removed, weighed and homogenized at 0° C; from tissue; host or cells: uterine cytosol (150,000 g supernatant) of estradiol-primed immature rabbits
T1 sequence (P06186 1-930): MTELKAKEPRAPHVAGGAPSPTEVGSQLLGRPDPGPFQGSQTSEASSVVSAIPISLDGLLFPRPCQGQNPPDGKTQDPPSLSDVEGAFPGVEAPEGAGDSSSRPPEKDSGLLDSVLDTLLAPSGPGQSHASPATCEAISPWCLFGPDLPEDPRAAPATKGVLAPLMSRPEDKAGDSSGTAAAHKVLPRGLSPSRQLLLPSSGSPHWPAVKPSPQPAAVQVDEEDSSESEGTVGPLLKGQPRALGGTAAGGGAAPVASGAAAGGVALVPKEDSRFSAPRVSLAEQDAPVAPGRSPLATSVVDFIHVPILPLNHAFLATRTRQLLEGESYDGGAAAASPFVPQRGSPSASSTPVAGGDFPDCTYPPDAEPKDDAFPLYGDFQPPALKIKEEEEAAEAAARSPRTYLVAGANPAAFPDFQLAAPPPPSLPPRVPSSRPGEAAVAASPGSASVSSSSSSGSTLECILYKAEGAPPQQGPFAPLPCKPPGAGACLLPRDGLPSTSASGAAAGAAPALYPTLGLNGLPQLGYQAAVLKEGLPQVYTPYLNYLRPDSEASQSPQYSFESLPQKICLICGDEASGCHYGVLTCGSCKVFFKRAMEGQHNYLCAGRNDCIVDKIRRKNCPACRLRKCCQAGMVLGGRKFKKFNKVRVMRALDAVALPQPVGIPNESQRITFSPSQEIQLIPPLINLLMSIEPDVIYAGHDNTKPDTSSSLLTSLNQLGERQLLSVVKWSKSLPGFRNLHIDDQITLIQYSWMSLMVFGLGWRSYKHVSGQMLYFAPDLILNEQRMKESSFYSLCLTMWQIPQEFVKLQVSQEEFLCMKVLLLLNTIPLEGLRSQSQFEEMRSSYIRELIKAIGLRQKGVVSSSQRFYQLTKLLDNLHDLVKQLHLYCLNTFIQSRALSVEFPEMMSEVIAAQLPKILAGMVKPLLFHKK
Experimental: Progestogen Receptor of Rabbit's Uterus:
Impuberal rabbits weighing about 1 kg received a cutaneous application of 25 μg of estradiol and 5 days after this treatment, the animals were killed. The uteri were removed, weighed and homogenized at 0° C. using a Potter teflon-glass in a TS buffered solution (Tris 10 mM, Saccharose 0.25 M, HCl pH 7.4) (1 g of tissue for 50 ml of TS). The homogenate was then ultracentrifuged (150,000 g×90 minutes) at 0° C. and aliquots of the supernatant were incubated at 0° C. for a time t, with a constant concentration (T) of the tritiated product R (17,21-dimethyl-19-nor-Δ^4,9-pregnadiene-3,20-dione in the presence of increasing concentrations (0-2500.10^−9 M) either of cold R or of cold progesterone, or of the cold product to be tested. The concentration (B) of bound tritiated R was subsequently measured in each incubate by the technique of adsorption on dextran charcoal.
(§1) Calculation of the Relative Affinty of the Bond
(§2) The calculation of the Relative Affinity of the Bond (RAB) was identical for all the receptors. The following 2 curves were traced; the percentage of the bound tritiated hormone [formula]
(§3) was a function of the logarithm of the concentration of the cold reference hormone and [formula]
(§4) as a function of the logarithm of the concentration of the cold product tested.
(§5) One determined the straight line of the equation [formula]
(§6) The intersections of the straight line I50 and of the curves make it possible to evaluate the concentrations of the cold reference hormone (CH) and of the tested cold product (CX) which inhibit to an extend of 50% the binding of the tritiated hormone upon the receptor. The relative affinity of the bond (RAB) of the tested product is determined by the equation

[2] = target: T2, Estrogenic Receptor of Mouse Uterus (Mus musculus, UniProt P19785); assay: Relative affinity of the bond, estrogen receptor (tritiated estradiol displacement); type: binding; conditions: for Relative affinity of the bond (RAB), Oestrogen, 2 H: incubation 2 H at 0° C.; for Relative affinity of the bond (RAB), Oestrogen, 2 H / Relative affinity of the bond (RAB), Oestrogen, 6 H: RAB=100(CH)/(CX); for Relative affinity of the bond (RAB), Oestrogen, 6 H: incubation 6 H (second time); for affinity for the estrogen receptors: at the second time (incubation)
T2 construct: their uteri were removed, then homogenized at 0° C; from tissue; host or cells: uterine cytosol (105,000 g supernatant) of immature female mice
T2 sequence (P19785 1-599): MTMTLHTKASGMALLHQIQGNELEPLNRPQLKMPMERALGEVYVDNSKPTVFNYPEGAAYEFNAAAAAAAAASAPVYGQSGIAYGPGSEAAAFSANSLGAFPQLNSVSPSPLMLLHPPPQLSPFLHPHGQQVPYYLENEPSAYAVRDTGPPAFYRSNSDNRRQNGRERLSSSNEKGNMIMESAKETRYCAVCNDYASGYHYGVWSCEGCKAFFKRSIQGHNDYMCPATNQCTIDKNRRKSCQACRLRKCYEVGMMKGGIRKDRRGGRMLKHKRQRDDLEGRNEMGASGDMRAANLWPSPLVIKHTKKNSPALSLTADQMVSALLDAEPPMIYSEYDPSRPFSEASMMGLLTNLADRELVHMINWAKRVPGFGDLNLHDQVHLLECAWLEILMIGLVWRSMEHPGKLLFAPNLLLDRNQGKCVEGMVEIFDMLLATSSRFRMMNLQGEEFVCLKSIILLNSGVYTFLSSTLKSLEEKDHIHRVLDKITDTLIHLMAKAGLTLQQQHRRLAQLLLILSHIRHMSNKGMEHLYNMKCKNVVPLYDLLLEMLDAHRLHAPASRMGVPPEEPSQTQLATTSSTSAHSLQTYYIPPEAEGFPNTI
Experimental: Estrogenic Receptor of Mouse Uterus:
Impuberal female mice aged from 18 to 21 days were killed and their uteri were removed, then homogenized at 0° C. with the aid of a Potter teflon-glass in a TS buffered solution (10 mM Tris, 0.25 M saccharose, HCL pH 7.4) (1 g of tissue for 25 ml of TS). The homogenate was ultracentrifuged (105,000 g×90 min) at 0° C. and aliquots of the supernatant were incubated at 0° C. or at 25° C. for a time (t) with a constant concentration (T) of tritiated estradiol in the presence of increasing concentrations (0-1000×10^−9 M) either of cold estradiol, or of the cold product to be tested. The concentration (B) of bound tritiated estradiol was measured in each incubate by the technique of adsorption on dextran carbon.
as §1, §2, §3, §4, §5, §6

Relative affinity of the bond (RAB), Progestogen, 2 H [1] | Relative affinity of the bond (RAB), Progestogen, 24 H [1] | Relative affinity of the bond (RAB), Oestrogen, 2 H [2] | Relative affinity of the bond (RAB), Oestrogen, 6 H [2] | affinity for the estrogen receptors [2] | affinity for the pregesterone receptor [1] | Compound
0.3 | 1 | 0.06 | 7.4 |  |  | N-butyl-3,17β-dihydroxy-N-methyl-19-nor-11β-Δ^1,3,5(10)-pregnatrien-20-yn undecanamide [Example 21]
0.5 | 2 | 0.6 | 60 | marked affinity |  | CC(C)N(C)C(=O)CCCCCCCCCC[C@H]1C[C@]2(C)[C@@H](O)CC[C@H]2[C@@H]2CCc3cc(O)ccc3[C@@H]12 [Example 16, 3,17β-dihydroxy-N-methyl-N-isopropyl-11β-Δ^1,3,5(10)-estratriene undecanamide]
0.0 | 1.8 | 0.13 | 27 | marked affinity |  | CCCCN(C)C(=O)CCCCCCCCCC[C@H]1C[C@]2(C)[C@@H](O)CC[C@H]2[C@@H]2CCc3cc(O)ccc3[C@@H]12 [Example 13, N-Butyl-3,17β-Dihydroxy-N-Methyl-11β-Δ^1,3,5(10)-Estratriene-Undecanamide]
0 | 16 | 0.1 | 0.01 |  | moderate affinity | CN(Cc1ccccc1)C(=O)CCCCCCCCCC[C@H]1C[C@]2(C)[C@@H](O)CC[C@H]2[C@@H]2CCC3=CC(=O)CCC3=C12 [Example 17, N-benzyl-17β-hydroxy-N-methyl-3-oxo-11β-Δ^4,9-estradiene undecanamide]
12 | 21 | 0.01 | 0.01 |  | moderate affinity | CC#C[C@]1(O)CC[C@H]2[C@@H]3CCC4=CC(=O)CCC4=C3[C@@H](CCCCCCCCCCC(=O)NCCCC)C[C@@]21C [Example 22, N-butyl-17β-hydroxy-3-oxo-17α-(1-propynyl)-11β-Δ^4,9-estradiene undecanamide]
0 | 0 | 0.02 | 13 |  |  | CCCCN(C)C(=O)CCCCCCCCCCC[C@H]1C[C@]2(C)[C@@H](O)CC[C@H]2[C@@H]2CCc3cc(O)ccc3[C@@H]12 [Example 24, N-butyl-3,17β-dihydroxy-N-methyl-11β-Δ^1,3,5(10)-estratriene dodecanamide]

Compound | Relative affinity of the bond (RAB), Progestogen, 2 H [1] | Relative affinity of the bond (RAB), Progestogen, 24 H [1] | Relative affinity of the bond (RAB), Oestrogen, 2 H [2] | Relative affinity of the bond (RAB), Oestrogen, 6 H [2] | affinity for the estrogen receptors [2] | affinity for the pregesterone receptor [1]
CN(C)CCN(C)C(=O)CCCCCCCCCC[C@H]1C[C@]2(C)[C@@H](O)CC[C@H]2[C@@H]2CCC3=CC(=O)CCC3=C12 [Example 19, N-[2-(dimethylamino)-ethyl]-17β-hydroxy-N-methyl-3-oxo-11β-Δ^4,9-estradiene undecanamide] | 6 | 7 | 0.3 | 0.8 |  | 
